Here are results for 8 compounds from publication PMC9770967, “Native holdup (nHU) to measure binding affinities from cell extracts” (Science Advances, 2022).

One test concerns the target SCRIB PDZ3. The settings on record: fragmentomic, isolated PDZ domain; cited from earlier work. From the text:
(§1) Supplement sciadv.ade3828_table_s1.zip/sciadv.ade3828_table_s1.xlsx, sheet "nHU-WB_SP"

A further test concerns the target SCRIB PDZ2. To be noted: fragmentomic, isolated PDZ domain; cited from earlier work.
From the text: as §1

Test [1] deals with isolated PDZ domain of SNX27. The settings on record: 10-mer PBM peptide vs isolated PDZ domain, holdup; cited from earlier work.
Another test addresses SCRIB PDZ1. To be noted: fragmentomic, isolated PDZ domain; cited from earlier work. The text has this:
Supplement sciadv.ade3828_table_s1.zip/sciadv.ade3828_table_s1.xlsx, sheet "nHU-WB_SP" | column: Domain-motif fragmentomic affinities (ProfAff)

The target of test [2] is endogenous full-length SCRIB (Homo sapiens, UniProt Q14160). The experiment in a line: Single-point nHU-WB, 12 PBM peptide baits, Jurkat extract. The test is classed as binding.
Chain of endogenous full-length SCRIB (Q14160 whole entry): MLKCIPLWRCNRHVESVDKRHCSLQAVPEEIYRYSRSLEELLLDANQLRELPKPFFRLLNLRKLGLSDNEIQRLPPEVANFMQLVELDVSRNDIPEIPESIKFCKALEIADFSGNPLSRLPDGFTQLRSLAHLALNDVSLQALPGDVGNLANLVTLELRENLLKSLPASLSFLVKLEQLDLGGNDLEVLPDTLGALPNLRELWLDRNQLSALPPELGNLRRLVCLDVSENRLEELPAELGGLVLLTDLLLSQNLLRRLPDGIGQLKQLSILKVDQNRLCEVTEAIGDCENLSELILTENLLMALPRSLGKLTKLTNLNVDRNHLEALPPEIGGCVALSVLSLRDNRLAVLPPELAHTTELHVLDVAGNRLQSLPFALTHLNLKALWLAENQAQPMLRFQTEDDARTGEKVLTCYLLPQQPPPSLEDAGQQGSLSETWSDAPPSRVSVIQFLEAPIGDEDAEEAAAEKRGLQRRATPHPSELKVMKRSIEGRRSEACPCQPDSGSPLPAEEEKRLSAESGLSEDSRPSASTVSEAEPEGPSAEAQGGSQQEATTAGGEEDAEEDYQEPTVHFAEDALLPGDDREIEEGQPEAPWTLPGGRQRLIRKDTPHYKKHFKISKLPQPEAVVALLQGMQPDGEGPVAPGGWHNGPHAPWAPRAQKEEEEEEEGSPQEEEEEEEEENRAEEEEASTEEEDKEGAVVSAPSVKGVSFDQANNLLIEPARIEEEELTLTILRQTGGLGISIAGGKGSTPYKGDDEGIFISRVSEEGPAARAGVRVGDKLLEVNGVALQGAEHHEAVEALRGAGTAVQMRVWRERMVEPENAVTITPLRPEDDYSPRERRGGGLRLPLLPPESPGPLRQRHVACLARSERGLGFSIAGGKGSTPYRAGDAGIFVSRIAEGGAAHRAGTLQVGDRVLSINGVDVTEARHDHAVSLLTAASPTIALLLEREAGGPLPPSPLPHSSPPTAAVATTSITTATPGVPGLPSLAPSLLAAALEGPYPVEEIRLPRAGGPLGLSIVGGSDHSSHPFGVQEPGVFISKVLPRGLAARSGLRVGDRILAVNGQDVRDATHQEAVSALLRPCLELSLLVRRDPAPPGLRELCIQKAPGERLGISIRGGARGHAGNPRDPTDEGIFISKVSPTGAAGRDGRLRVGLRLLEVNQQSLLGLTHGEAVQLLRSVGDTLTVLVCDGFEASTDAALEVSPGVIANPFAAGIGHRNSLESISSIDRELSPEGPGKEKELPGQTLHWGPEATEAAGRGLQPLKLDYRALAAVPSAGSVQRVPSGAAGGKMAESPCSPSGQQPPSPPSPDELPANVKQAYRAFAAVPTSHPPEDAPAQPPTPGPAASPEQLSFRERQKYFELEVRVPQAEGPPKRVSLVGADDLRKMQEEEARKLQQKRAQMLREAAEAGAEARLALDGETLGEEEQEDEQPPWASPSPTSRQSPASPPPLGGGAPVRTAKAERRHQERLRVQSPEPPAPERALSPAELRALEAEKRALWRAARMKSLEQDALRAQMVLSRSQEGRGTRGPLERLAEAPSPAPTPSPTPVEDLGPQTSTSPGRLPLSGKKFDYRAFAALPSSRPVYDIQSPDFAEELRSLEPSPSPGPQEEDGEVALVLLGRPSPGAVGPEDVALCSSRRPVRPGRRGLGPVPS
Test [3] deals with T1, endogenous full-length SNX27 (Homo sapiens, UniProt Q96L92).
T1 construct: Supernatant fractions were probed with specific antibodies against endogenous full-length PDZ domain–containing proteins SCRIB and SNX27; endogenous in cells; host or cells: Jurkat E6.1 total cell extract
The description is as above. The test is classed as binding.

The structures appear in SMILES notation. Read-outs that look alike come from different tables or passages of the source. *1 amine or outer side, *2 acyl side, *3 side chain or, on linkers, in order; H or OH if unused. Where a SMILES comes first, the peptide text is derived from it. The star is where a group is joined. X1 = O=C(CCCC[C@@H]1SC[C@@H]2NC(=O)N[C@@H]21)NCCCOCCOCCOCCCN*; Suc = O=C(CCC(=O)[*:2])[*:1]

On to `CC[C@H](C)[C@H](NC(=O)CCC(=O)NCCCOCCOCCOCCCNC(=O)CCCC[C@@H]1SC[C@@H]2NC(=O)N[C@@H]21)C(=O)N[C@@H](CC(=O)O)C(=O)N[C@@H](CC(N)=O)C(=O)N[C@@H](CC(=O)O)C(=O)N[C@H](C(=O)N[C@@H](CCC(=O)O)C(=O)N[C@@H](CO)C(=O)N[C@H](C(=O)N[C@@H](C)C(=O)N[C@@H](CC(C)C)C(=O)O)[C@@H](C)O)[C@@H](C)O` [ARHGAP17] ({X1-Suc}-IDNDTESTAL-OH; C-terminus assumed), for which, on SCRIB PDZ3, the pKd_PDZ3 is listed as 4.57. The pKd_PDZ2 on SCRIB PDZ2 is listed as 3.61. The “pKd (fragmentomic affinity)” value in test [1] is reported as 4.97. Moreover, the pKd_PDZ1 at SCRIB PDZ1 is listed as 4.91.
For the compound `CC(C)C[C@H](NC(=O)[C@H](CC(N)=O)NC(=O)[C@@H](NC(=O)[C@H](CCC(=O)O)NC(=O)[C@H](CC(=O)O)NC(=O)[C@H](Cc1c[nH]c2ccccc12)NC(=O)[C@H](C)NC(=O)[C@@H]1CCCN1C(=O)[C@H](CC(=O)O)NC(=O)[C@H](CC(N)=O)NC(=O)CCC(=O)NCCCOCCOCCOCCCNC(=O)CCCC[C@@H]1SC[C@@H]2NC(=O)N[C@@H]21)[C@@H](C)O)C(=O)O` [ARHGEF7] ({X1-Suc}-NDPAWDETNL-OH; C-terminus assumed), on SCRIB PDZ3, the pKd_PDZ3 is 5.08. Besides, the pKd_PDZ2 at SCRIB PDZ2 is on record as 4.68. In addition, the results for the Kd in test [2] and in test [3] were 1.35 µM and 1.51 µM, respectively. Besides, the “pKd (fragmentomic affinity)” value in test [1] was 5.66. In addition, the pKd_PDZ1 on SCRIB PDZ1 is listed as 5.50.
As to `CC(C)C[C@H](NC(=O)[C@H](CO)NC(=O)[C@@H](NC(=O)[C@H](CCC(=O)O)NC(=O)[C@H](CC(C)C)NC(=O)[C@H](CO)NC(=O)[C@H](Cc1c[nH]cn1)NC(=O)[C@H](CC(C)C)NC(=O)[C@@H]1CCCN1C(=O)[C@H](CO)NC(=O)CCC(=O)NCCCOCCOCCOCCCNC(=O)CCCC[C@@H]1SC[C@@H]2NC(=O)N[C@@H]21)[C@@H](C)O)C(=O)O` [ATP2B1] ({X1-Suc}-SPLHSLETSL-OH; C-terminus assumed), the pKd_PDZ3 at SCRIB PDZ3 is on record as 5.54. Also, the pKd_PDZ2 at SCRIB PDZ2 is on record as 4.27. Moreover, in test [1], the “pKd (fragmentomic affinity)” value was 5.48. Further, on SCRIB PDZ1, the pKd_PDZ1 is 5.36.
Take `CC(C)[C@H](NC(=O)CN)C(=O)N[C@@H](CCC(=O)O)C(=O)NCC(=O)N[C@@H](CO)C(=O)N[C@@H](CC(=O)O)C(=O)N[C@H](C(=O)N[C@H](C(=O)N[C@@H](CCC(=O)O)C(=O)N[C@@H](C)C(=O)O)[C@@H](C)O)[C@@H](C)O` [MAP4] (H-GVEGSDTTEA-OH): the Kd in test [2] (apparent, Eq. 2, ~10 μM bait, Jurkat extract, mean of replicates with a value, read-out: av.pKapp (converted)) was 1.17 µM; in test [3] (apparent, Eq. 2, ~10 μM bait, Jurkat extract, mean of n = 3, read-out: av.pKapp (converted)), 1.51 µM.
Regarding `CC(C)C[C@H](NC(=O)[C@H](CO)NC(=O)[C@@H](NC(=O)[C@H](CCC(=O)O)NC(=O)[C@H](CCC(=O)O)NC(=O)[C@H](CS)NC(=O)[C@@H](NC(=O)[C@H](CCCNC(=N)N)NC(=O)[C@@H](NC(=O)[C@@H]1CCCN1C(=O)CCC(=O)NCCCOCCOCCOCCCNC(=O)CCCC[C@@H]1SC[C@@H]2NC(=O)N[C@@H]21)C(C)C)C(C)C)[C@@H](C)O)C(=O)O` [OTULIN] ({X1-Suc}-PVRVCEETSL-OH; C-terminus assumed), the pKd_PDZ3 on SCRIB PDZ3 was 5.64. The pKd_PDZ2 on SCRIB PDZ2 was 4.70. Also, the “pKd (fragmentomic affinity)” value in test [1] is recorded as 5.58. Besides, the pKd_PDZ1 on SCRIB PDZ1 was 5.44.
In the case of `CSCC[C@H](NC(=O)[C@@H](NC(=O)[C@H](CO)NC(=O)[C@H](CCC(=O)O)NC(=O)[C@H](CCCCN)NC(=O)[C@H](CCC(=O)O)NC(=O)[C@H](CO)NC(=O)[C@H](C)NC(=O)[C@@H](NC(=O)[C@@H](NC(=O)CCC(=O)NCCCOCCOCCOCCCNC(=O)CCCC[C@@H]1SC[C@@H]2NC(=O)N[C@@H]21)[C@@H](C)O)C(C)C)C(C)C)C(=O)O` [SLC1A5] ({X1-Suc}-TVASEKESVM-OH; C-terminus assumed), the pKd_PDZ3 on SCRIB PDZ3 is given as 3.97. Besides, the Kd in test [2] was 112 µM; in test [3] it was 8.91 µM. Besides, the “pKd (fragmentomic affinity)” value in test [1] was 5.29. The pKd_PDZ1 on SCRIB PDZ1 is recorded as 5.20.
Turning to `CC(C)C[C@H](NC(=O)[C@@H]1CCCN1C(=O)[C@H](Cc1c[nH]cn1)NC(=O)[C@H](Cc1ccccc1)NC(=O)CCC(=O)NCCCOCCOCCOCCCNC(=O)CCCC[C@@H]1SC[C@@H]2NC(=O)N[C@@H]21)C(=O)NCC(=O)N[C@@H](C)C(=O)N[C@@H](CC(=O)O)C(=O)N[C@@H](CO)C(=O)N[C@@H](CCC(N)=O)C(=O)N[C@H](C(=O)O)C(C)C` [SLC2A1] ({X1-Suc}-FHPLGADSQV-OH; C-terminus assumed), the pKd_PDZ3 at SCRIB PDZ3 is given as 3.58. The Kd is 69.2 µM in test [2] and 25.1 µM in test [3]. Moreover, in test [1], the “pKd (fragmentomic affinity)” value is reported as 4.05. In addition, the pKd_PDZ1 at SCRIB PDZ1 was 4.02.
Take `CC(C)[C@H](NC(=O)[C@@H]1CCCN1C(=O)[C@H](CO)NC(=O)[C@H](CCC(=O)O)NC(=O)[C@H](CCC(=O)O)NC(=O)[C@H](CCC(=O)O)NC(=O)[C@H](CCCCN)NC(=O)[C@@H]1CCCN1C(=O)CNC(=O)CNC(=O)CCC(=O)NCCCOCCOCCOCCCNC(=O)CCCC[C@@H]1SC[C@@H]2NC(=O)N[C@@H]21)C(=O)O` [SLC16A1] ({X1-Suc}-GGPKEEESPV-OH; C-terminus assumed): the Kd in test [2] was 69.2 µM; in test [3], 6.17 µM. Moreover, the “pKd (fragmentomic affinity)” value in test [1] is reported as 5.27. Moreover, the pKd_PDZ1 on SCRIB PDZ1 is 5.18.
